From US4017639A, “2-Hydroxy-3-nitro-1,4-naphthoquinones for the prophylaxis of certain allergies” (Beecham Group Limited, priority 1974, dated 1977)

System: PCA response
Experiment: rat Passive Cutaneous Anaphylaxis Test (PCA test)
Format: in vivo, rat (male Wistar)
Conditions: sc, subcutaneous, as sodium salt
Experimental: All of the compounds of the formula (I) prepared in the preceding examples were tested in the rat Passive Cutaneous Anaphylaxis Test (PCA test) described below. They were administered as their sodium salts either in pH 7.2 phosphate buffer (for soluble salts) or as a suspension in 1% methyl cellulose (for insoluble salts).
Male Wistar rats of 250-300 g were injected intraperitoneally with 0.5 ml. of Bordatella pertussis vaccine (containing 4 × 10^10 dead organism per ml) and subcutaneously with 0.5 ml. of an emulsion of 100 mg of ovalbumin in 2 ml. of saline and 3 ml. of incomplete Freunds' adjuvant. Rats were bled by cardiac puncture on day 18, the blood was pooled and separated and serum stored at -20° and thawed only once before use.
0.1 ml. of each of six twofold serial dilutions of the serum in 0.9% saline were injected intradermally into separate sites on the shaved dorsal surface of 250-350 g. Male Wister rats. 72 hours later the animals were challenged by i.v. injection of 0.3 ml. of 1% ovalbumin mixed with 0.1 ml. of a 5% solution of pontamine sky blue dye both in isotonic saline buffered with pH 7.2 Sorenson buffer (P.B.S.). The rats were killed after 20 minutes and the diameter of the blue wheals at the antibody injection sites were measured. The starting dilution of the serum was adjusted so that there was no response, after challenge, at the site of injection of the highest dilution and a maximum response at the two or three lowest dilutions.
Amounts of the compounds were administered to rats by subcutaneous injection, into the nucal region, of a solution of the compound in P.B.S. or as a suspension in 1% methyl cellulose, each amount to a test group of six animals at a specified time prior to intravenous challenge with ovalbumin.
For those compounds having insoluble sodium salts, the salts were isolated by reaction of the free nitro compound with 2.5N sodium hydroxide and the filtered sodium salt washed free of alkali with water. The dried salts were then administered as a suspension in 1% methyl cellulose.

[1] = 0.5 h, time 30 mins before challenge
[2] = 10 min, time 10 mins before challenge

Question: How did the inhibition in vivo at 25 mg/kg [1] turn out when `O=C1C(O)=C([N+](=O)[O-])C(=O)c2ccccc21` [Example 1, 2-Hydroxy-3-nitro-1,4naphthoquinone] was run?
Answer: Its inhibition in vivo at 25 mg/kg is 16%.

Question: What about the inhibition in vivo at 100 mg/kg [1] of the same molecule?
Answer: Its inhibition in vivo at 100 mg/kg is 30%.

Question: For `Cc1ccc2c(c1)C(=O)C([N+](=O)[O-])=C(O)C2=O` [Example 2, 2-Hydroxy-6-methyl-3-nitro-1,4-naphthoquinone], which inhibition in vivo at 25 mg/kg [1] is on record?
Answer: The inhibition in vivo at 25 mg/kg was 33%.

Question: And the inhibition in vivo at 100 mg/kg [1]?
Answer: Its inhibition in vivo at 100 mg/kg is 30%.

Question: With `O=C1C([N+](=O)[O-])=C(O)C(=O)c2c(O)cccc21` [Example 3, 3,5-Dihydroxy-2-nitro-1,4-naphthoquinone] as the molecule, how does the inhibition in vivo at 25 mg/kg [1] read?
Answer: The inhibition in vivo at 25 mg/kg was 14%.

Question: And the inhibition in vivo at 72 mg/kg (0.5 h, dose 72 mg/Kg, time 30 mins before challenge)?
Answer: The inhibition in vivo at 72 mg/kg was 18%.

Question: `Cc1cccc2c1C(=O)C(O)=C([N+](=O)[O-])C2=O` [Example 4, 3-Hydroxy-5-methyl-2-nitro-1,4-naphthoquinone] was tested. Which inhibition in vivo at 0.5 mg/kg (10 min, dose 0.5 mg/Kg, time 10 mins before challenge) did it give?
Answer: The inhibition in vivo at 0.5 mg/kg was 6%.

Question: And the inhibition in vivo at 1 mg/kg [2]?
Answer: The inhibition in vivo at 1 mg/kg was 16%.

Question: And the inhibition in vivo at 2 mg/kg [2]?
Answer: The inhibition in vivo at 2 mg/kg was 16%.

Question: What about the inhibition in vivo at 4 mg/kg [2] of the same molecule?
Answer: The inhibition in vivo at 4 mg/kg was 29%.

Question: For `COc1ccc2c(c1)C(=O)C(O)=C([N+](=O)[O-])C2=O` [Example 5, 3-Hydroxy-6-methoxy-2-nitro-1,4-naphthoquinone], which inhibition in vivo at 5 mg/kg [2] is on record?
Answer: Its inhibition in vivo at 5 mg/kg is 22%.

Question: What about the inhibition in vivo at 10 mg/kg [2] of the same molecule?
Answer: Its inhibition in vivo at 10 mg/kg is 41%.

Question: And the inhibition in vivo at 20 mg/kg [2]?
Answer: Its inhibition in vivo at 20 mg/kg is 65%.

Question: What about the inhibition in vivo at 40 mg/kg [2] of the same molecule?
Answer: The inhibition in vivo at 40 mg/kg was 85%.

Question: Which results are given for `Cc1ccc2c(c1)C(=O)C(O)=C([N+](=O)[O-])C2=O` [Example 6, 3-Hydroxy-6-methyl-2-nitro-1,4-naphthoquinone]?
Answer: inhibition in vivo at 5 mg/kg [2]: 19%; inhibition in vivo at 10 mg/kg [2]: 36%; inhibition in vivo at 20 mg/kg [2]: 33%; inhibition in vivo at 40 mg/kg [2]: 52%

Question: Which inhibition in vivo at 25 mg/kg [1] does the source give for `Cc1cc2c(cc1C)C(=O)C([N+](=O)[O-])=C(O)C2=O` [Example 7, 6,7-Dimethyl-2-hydroxy-3-nitro-1,4-naphthoquinone] here?
Answer: Its inhibition in vivo at 25 mg/kg is 18%.

Question: And the inhibition in vivo at 100 mg/kg [1]?
Answer: The inhibition in vivo at 100 mg/kg was 27%.

Question: With `CCOc1ccc2c(c1)C(=O)C(O)=C([N+](=O)[O-])C2=O` [Example 8, 6-Ethoxy-3-hydroxy-2-nitro-1,4-naphthoquinone] as the molecule, how does the inhibition in vivo at 5 mg/kg [2] read?
Answer: The inhibition in vivo at 5 mg/kg was 25%.

Question: And the inhibition in vivo at 10 mg/kg [2]?
Answer: Its inhibition in vivo at 10 mg/kg is 28%.

Question: And the inhibition in vivo at 20 mg/kg [2]?
Answer: The inhibition in vivo at 20 mg/kg was 54%.

Question: And the inhibition in vivo at 40 mg/kg [2]?
Answer: The inhibition in vivo at 40 mg/kg was 79%.

Question: With `COc1cc2c(cc1OC)C(=O)C([N+](=O)[O-])=C(O)C2=O` [Example 9, 6.7-Dimethoxy-2-hydroxy-3-nitro-1,4-naphthoquinone] as the molecule, how does the inhibition in vivo at 5 mg/kg [2] read?
Answer: Its inhibition in vivo at 5 mg/kg is 28%.

Question: And the inhibition in vivo at 10 mg/kg [2]?
Answer: The inhibition in vivo at 10 mg/kg was 39%.

Question: And the inhibition in vivo at 20 mg/kg [2]?
Answer: The inhibition in vivo at 20 mg/kg was 75%.

Question: What about the inhibition in vivo at 40 mg/kg [2] of the same molecule?
Answer: Its inhibition in vivo at 40 mg/kg is 84%.

Question: `O=C1C(O)=C([N+](=O)[O-])C(=O)c2ccc(Br)cc21` [Example 10, 6-Bromo-3-hydroxy-2-nitro-1.4-naphthoquinone] was tested. Which inhibition in vivo at 100 mg/kg [2] did it give?
Answer: Its inhibition in vivo at 100 mg/kg is 5%.

Question: And the inhibition in vivo at 100 mg/kg [1]?
Answer: The inhibition in vivo at 100 mg/kg was 13%.

Question: How did the inhibition in vivo at 100 mg/kg [2] turn out when `O=C1C(O)=C([N+](=O)[O-])C(=O)c2ccc(F)cc21` [Example 11, 6-Fluoro-3-hydroxy-2-nitro-1,4-naphthoquinone] was run?
Answer: Its inhibition in vivo at 100 mg/kg is 13%.

Question: What about the inhibition in vivo at 100 mg/kg [1] of the same molecule?
Answer: The inhibition in vivo at 100 mg/kg was 16%.

Question: With `CCc1cc2c(cc1CC)C(=O)C([N+](=O)[O-])=C(O)C2=O` [Example 12, 6,7-Diethyl-2-hydroxy-3-nitro-1,4-naphthoquinone] as the molecule, how does the inhibition in vivo at 1 mg/kg [2] read?
Answer: The inhibition in vivo at 1 mg/kg was 11%.

Question: And the inhibition in vivo at 2 mg/kg [2]?
Answer: The inhibition in vivo at 2 mg/kg was 23%.

Question: And the inhibition in vivo at 4 mg/kg [2]?
Answer: The inhibition in vivo at 4 mg/kg was 26%.

Question: And the inhibition in vivo at 8 mg/kg (10 min, dose 8 mg/Kg, time 10 mins before challenge)?
Answer: The inhibition in vivo at 8 mg/kg was 55%.

Question: Which results are given for `O=C1C(O)=C([N+](=O)[O-])C(=O)c2cc3c(cc21)CCCC3` [Example 13, 2-Hydroxy-3-nitro-6,7-tetramethylene-1,4-naphtoquinone]?
Answer: inhibition in vivo at 5 mg/kg [2]: 72%; inhibition in vivo at 10 mg/kg [2]: 80%; inhibition in vivo at 20 mg/kg [2]: 87%; inhibition in vivo at 40 mg/kg [2]: 90%

Question: For `O=C1C(O)=C([N+](=O)[O-])C(=O)c2ccc(-c3ccccc3)cc21` [Example 14, 2-Hydroxy-3-nitro-7-phenyl-1,4-naphthoquinone], which inhibition in vivo at 10 mg/kg [2] is on record?
Answer: The inhibition in vivo at 10 mg/kg was 20%.

Question: And the inhibition in vivo at 20 mg/kg [2]?
Answer: Its inhibition in vivo at 20 mg/kg is 12%.

Question: And the inhibition in vivo at 40 mg/kg [2]?
Answer: The inhibition in vivo at 40 mg/kg was 23%.

Question: And the inhibition in vivo at 80 mg/kg (10 min, dose 80 mg/Kg, time 10 mins before challenge)?
Answer: Its inhibition in vivo at 80 mg/kg is 23%.
